Data as given in ChEMBL document CHEMBL5620362 (Eur J Med Chem, 2023).
Activity calls are given as the source filed them. No cut-off for these calls is given here.

Key:
[1] = AUClast in ICR mouse at 3 mg/kg, iv; format: ADME, organism-based; details: in vivo
NCI-H23 [2] = test: Induction of apoptosis in human NCI-H23 cells assessed as late apoptotic cells at 1 uM incubated for 48 hrs by Annexin V-FITC/PI staining based flow cytometry (reference value: 2.89 %); format: functional
[3] = Toxicity in nude Balb/cA mouse xenografted with human HPAF-II cells assessed as swelling at injection site at 15 mg/kg, ip qd measured for 12 days; format: organism-based; details: in vivo, 288 h, time 12 day
NCI-H23 [4] = test: Induction of apoptosis in human NCI-H23 cells assessed as viable cells at 1 uM incubated for 48 hrs by Annexin V-FITC/PI staining based flow cytometry (reference value: 92.16 %); format: functional; details: read-out: Activity
HPAF-II [5] = test: Induction of apoptosis in human HPAF-II cells assessed as necrotic cells at 10 uM incubated for 48 hrs by Annexin V-FITC/PI staining based flow cytometry (reference value: 8.09 %); format: functional
NCI-H23 [6] = test: Induction of apoptosis in human NCI-H23 cells assessed as necrotic cells at 1 uM incubated for 48 hrs by Annexin V-FITC/PI staining based flow cytometry (reference value: 0.78 %); format: functional
[7] = Toxicity in nude Balb/cA mouse xenografted with human HPAF-II cells assessed as body weight loss at 15 mg/kg, ip qd measured for 12 days; format: organism-based; details: in vivo, 288 h, time 12 day
NCI-H23 [8] = test: Induction of apoptosis in human NCI-H23 cells assessed as viable cells at 10 uM incubated for 48 hrs by Annexin V-FITC/PI staining based flow cytometry (reference value: 92.16 %); format: functional; details: read-out: Activity
A549 = test: Anticancer activity against human A549 cells incubated for 72 hrs; format: functional, cell-based
NCI-H23 [9] = test: Induction of apoptosis in human NCI-H23 cells assessed as late apoptotic cells at 0.1 uM incubated for 48 hrs by Annexin V-FITC/PI staining based flow cytometry (reference value: 2.89 %); format: functional
NCI-H1373 = test: Anticancer activity against human NCI-H1373 cells incubated for 72 hrs; format: functional, cell-based
HPAF-II [10] = test: Anticancer activity against human HPAF-II cells incubated for 72 hrs; format: functional, cell-based
HPAF-II [11] = test: Antitumor activity against human HPAF-II cells xenografted in nude Balb/cA mouse assessed as tumor growth inhibition at 180 mg/kg, po qd measured for 12 days relative to control; format: functional; set-up: scale not given: the % may be the effect or the level left; details: time 12 day
HPAF-II [12] = test: Induction of apoptosis in human HPAF-II cells assessed as viable cells at 10 uM incubated for 48 hrs by Annexin V-FITC/PI staining based flow cytometry (reference value: 89.73 %); format: functional; details: read-out: Activity
HPAF-II [13] = test: Downregulation of phosphorylated ERK expression in human HPAF-II cells at 0.1 to 1 uM incubated for 48 hrs by Western blot analysis; format: functional, cell-based; details: dose 0.1-1 µM
HPAF-II [14] = test: Induction of apoptosis in human HPAF-II cells harboring siROR-gamma at 0.1 uM incubated for 24 hrs by Annexin V-FITC/PI staining based flow cytometry; format: functional, cell-based
NCI-H23 [15] = test: Induction of apoptosis in human NCI-H23 cells assessed as viable cells at 0.01 uM incubated for 48 hrs by Annexin V-FITC/PI staining based flow cytometry (reference value: 92.16 %); format: functional; details: read-out: Activity
HPAF-II [16] = test: Antitumor activity against human HPAF-II cells xenografted in nude Balb/cA mouse assessed as tumor growth inhibition at 150 mg/kg, po qd measured for 12 days relative to control; format: functional; set-up: scale not given: the % may be the effect or the level left; details: time 12 day
HPAF-II [17] = test: Induction of apoptosis in human HPAF-II cells assessed as necrotic cells at 0.01 uM incubated for 48 hrs by Annexin V-FITC/PI staining based flow cytometry (reference value: 8.09 %); format: functional
HPAF-II [18] = test: Antitumor activity against human HPAF-II cells xenografted in nude Balb/cA mouse assessed as tumor growth inhibition at 90 mg/kg, po qd measured for 12 days relative to control; format: functional; set-up: scale not given: the % may be the effect or the level left; details: time 12 day
HPAF-II [19] = test: Induction of apoptosis in human HPAF-II cells assessed as late apoptotic cells at 0.1 uM incubated for 48 hrs by Annexin V-FITC/PI staining based flow cytometry (reference value: 1.28 %); format: functional
EOL1 = test: Anticancer activity against human EOL1 cells incubated for 72 hrs; format: functional, cell-based
HPAF-II [20] = test: Induction of apoptosis in human HPAF-II cells assessed as viable cells at 0.1 uM incubated for 48 hrs by Annexin V-FITC/PI staining based flow cytometry (reference value: 89.73 %); format: functional; details: read-out: Activity
NCI-H23 [21] = test: Induction of apoptosis in human NCI-H23 cells assessed as early apoptotic cells at 1 uM incubated for 48 hrs by Annexin V-FITC/PI staining based flow cytometry (reference value: 4.17 %); format: functional
HPAF-II [22] = test: Induction of apoptosis in human HPAF-II cells assessed as viable cells at 1 uM incubated for 48 hrs by Annexin V-FITC/PI staining based flow cytometry (reference value: 89.73 %); format: functional; details: read-out: Activity
[23] = MRT (infinity) in ICR mouse at 3 mg/kg, iv; format: ADME, organism-based; details: in vivo
HPAF-II [24] = test: Induction of apoptosis in human HPAF-II cells assessed as late apoptotic cells at 1 uM incubated for 48 hrs by Annexin V-FITC/PI staining based flow cytometry (reference value: 1.28 %); format: functional
PANC-1 = test: Anticancer activity against human PANC-1 cells incubated for 72 hrs; format: functional, cell-based
HPAF-II [25] = test: Inhibition of colony formation in human HPAF-II cells harboring siROR-gamma 0.1 uM incubated for 6 to 7 days by crystal violet staining based analysis; format: functional, cell-based; details: time 6-7 day
HPAF-II [26] = test: Induction of apoptosis in human HPAF-II cells assessed as early apoptotic cells at 10 uM incubated for 48 hrs by Annexin V-FITC/PI staining based flow cytometry (reference value: 0.90 %); format: functional
[27] = Cmax in ICR mouse at 10 mg/kg, po; format: ADME, organism-based; details: in vivo
[28] = Tmax in ICR mouse at 10 mg/kg, po; format: ADME, organism-based; details: in vivo
[29] = AUC (infinity) in ICR mouse at 10 mg/kg, po; format: ADME, organism-based; details: in vivo
NCI-H23 [30] = test: Induction of apoptosis in human NCI-H23 cells assessed as necrotic cells at 0.1 uM incubated for 48 hrs by Annexin V-FITC/PI staining based flow cytometry (reference value: 0.78 %); format: functional
HPAF-II [31] = test: Induction of apoptosis in human HPAF-II cells assessed as late apoptotic cells at 0.01 uM incubated for 48 hrs by Annexin V-FITC/PI staining based flow cytometry (reference value: 1.28 %); format: functional
HPAF-II [32] = test: Induction of apoptosis in human HPAF-II cells assessed as late apoptotic cells at 10 uM incubated for 48 hrs by Annexin V-FITC/PI staining based flow cytometry (reference value: 1.28 %); format: functional
HPAF-II [33] = test: Induction of apoptosis in human HPAF-II cells assessed as early apoptotic cells at 0.1 uM incubated for 48 hrs by Annexin V-FITC/PI staining based flow cytometry (reference value: 0.90 %); format: functional
HPAF-II [34] = test: Cytotoxicity against human HPAF-II cells harboring siROR-gamma assessed as decrease in cell viability at 0.1 uM incubated for 72 hrs by SRB assay; format: functional, cell-based
MIA PaCa-2 = test: Induction of apoptosis in human MIA PaCa-2 cells 1 uM incubated for 48 hrs by Annexin V-FITC/PI staining based flow cytometry; format: functional, cell-based

- AUC(0-t) [1]: 2980 ng·h/mL
- MRT inf [23]: 5.22 h
- Cmax [27]: 114 ng/mL
- Tmax [28]: 2 h
- AUC(0-inf) [29]: 2050 ng·h/mL
SMILES: C=C(C)[C@@H]1CC[C@]2(C(=O)NCCCN(C)C)CC[C@]3(C)[C@H](CC[C@@H]4[C@@]5(C)CC[C@H](O)C(C)(C)[C@@H]5CC[C@]43C)[C@@H]12
- Activity (NCI-H23 [2]): 18.15%
- Activity [3]: Toxic
- viability at 1 µM (NCI-H23 [4]): 12.7%
- Activity (HPAF-II [5]): 3.33%
- Activity (NCI-H23 [6]): 1.48%
- Activity [7]: 19%
- viability at 10 µM (NCI-H23 [8]): 6.54%
- Activity (A549): Active
- Activity (NCI-H23 [9]): 12.32%
- Activity (NCI-H1373): Active
- Activity (HPAF-II [10]): Active
- Activity (HPAF-II [11]): 49%
- viability at 10 µM (HPAF-II [12]): 5.04%
- Activity (HPAF-II [13]): Active
- Activity (HPAF-II [14]): inactive
- viability at 0.01 µM (NCI-H23 [15]): 86.3%
- Activity (HPAF-II [16]): 39%
- Activity (HPAF-II [17]): 7.52%
- Activity (HPAF-II [18]): 21%
- Activity (HPAF-II [19]): 12.13%
- Activity (EOL1): Active
- viability at 0.1 µM (HPAF-II [20]): 59.3%
- Activity (NCI-H23 [21]): 67.63%
- viability at 1 µM (HPAF-II [22]): 38.2%
- Activity (HPAF-II [24]): 20.27%
- Activity (PANC-1): Active
- inhibition (HPAF-II [25]): inactive
- Activity (HPAF-II [26]): 48.86%
- Activity (NCI-H23 [30]): 4.71%
- Activity (HPAF-II [31]): 4.48%
- Activity (HPAF-II [32]): 42.77%
- Activity (HPAF-II [33]): 23.73%
- Activity (HPAF-II [34]): inactive
- Activity (MIA PaCa-2): Active
